12 compounds from patent publication US12617795B2, “Substituted 6,7-dihydro-5H-pyrrolo[3,4-d]pyrimidines, 5,7-dihydrofuro[3,4-d]pyrimidines, and pyrido[2,3-d]pyrimidines as KCC2 modulators” (Astrazeneca AB, priority 2020, dated 2026) can be followed below.

This assay addresses T1, KCC2 (Homo sapiens, UniProt Q9H2X9).
T1 construct: expressed in transfected cells; host or cells: HEK293 cells electroporated (Maxcyte STX) with the pcDNA3.1 KCC2 plasmid
T1 sequence (Q9H2X9 1-1139): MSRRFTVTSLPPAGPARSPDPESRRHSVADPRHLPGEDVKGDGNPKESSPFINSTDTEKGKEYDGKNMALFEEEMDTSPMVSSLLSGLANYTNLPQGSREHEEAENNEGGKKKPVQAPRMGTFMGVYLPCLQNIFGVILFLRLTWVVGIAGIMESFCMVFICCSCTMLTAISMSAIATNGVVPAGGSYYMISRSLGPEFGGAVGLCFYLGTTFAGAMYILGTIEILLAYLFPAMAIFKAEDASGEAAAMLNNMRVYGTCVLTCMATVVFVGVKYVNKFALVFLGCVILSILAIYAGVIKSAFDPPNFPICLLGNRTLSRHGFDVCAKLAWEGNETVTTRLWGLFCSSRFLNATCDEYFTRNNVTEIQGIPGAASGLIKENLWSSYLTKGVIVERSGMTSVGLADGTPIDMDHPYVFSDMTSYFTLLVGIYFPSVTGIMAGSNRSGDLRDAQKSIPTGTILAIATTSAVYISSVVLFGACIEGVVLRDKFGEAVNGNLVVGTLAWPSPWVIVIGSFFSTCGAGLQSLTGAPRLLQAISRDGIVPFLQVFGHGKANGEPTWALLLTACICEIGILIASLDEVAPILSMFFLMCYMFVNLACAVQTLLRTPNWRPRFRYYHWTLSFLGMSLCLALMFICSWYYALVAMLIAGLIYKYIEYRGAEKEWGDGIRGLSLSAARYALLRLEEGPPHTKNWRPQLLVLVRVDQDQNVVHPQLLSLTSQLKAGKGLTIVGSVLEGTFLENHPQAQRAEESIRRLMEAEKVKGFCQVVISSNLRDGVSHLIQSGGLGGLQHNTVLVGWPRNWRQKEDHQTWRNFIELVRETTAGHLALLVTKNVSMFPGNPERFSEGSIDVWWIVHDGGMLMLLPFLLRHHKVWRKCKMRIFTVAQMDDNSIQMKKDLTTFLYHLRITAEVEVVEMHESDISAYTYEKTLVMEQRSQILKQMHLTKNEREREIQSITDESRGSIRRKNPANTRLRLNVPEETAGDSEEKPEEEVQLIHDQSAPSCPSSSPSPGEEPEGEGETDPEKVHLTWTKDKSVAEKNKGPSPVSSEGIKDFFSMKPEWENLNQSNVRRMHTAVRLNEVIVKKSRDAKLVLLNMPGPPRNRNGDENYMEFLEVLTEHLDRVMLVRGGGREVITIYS
The assay is described as follows: KCC2 thallium transport FLIPR-based assay (Tl+ influx in HEK293 cells expressing KCC2). It counts as cell-based. Conditions: 90 min compound incubation at RT, thallium flux at 120 s used to determine EC50. Put shortly:
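Transient electroporation of codon-optimised human KCC2 into HEK293 cells, plated and cultured 48 h before dye loading (1 h, RT). Compounds run as a 12-point 1:2 series from 100 μM top, 90 min RT in buffer containing bumetanide; Tl+ flux read by FLIPR after stimulus addition, 1 s intervals over 120 s, with the 120 s signal used for EC50.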

pEC50: −log10 of the molar value.

One may read the pEC50 as the EC50 on a negative log10 scale, so that one unit is a factor of ten. Read a low pEC50 as a high EC50. Consider `COc1cc(-c2nc(Nc3ccc(C4CCCCC4)cc3)c3c(n2)C(=O)N(C(C)C)C3)ccn1` [Example 43, 4-[(4-cyclohexylphenyl)amino]-2-(2-methoxypyridin-4-yl)-6-(propan-2-yl)-5,6-dihydro-7H-pyrrolo[3,4-d]pyrimidin-7-one], for which the negative logarithm of the EC50 (pEC50) is 6.13.
The value for `CCCCCCCOc1ccc(-c2ccc(Nc3nc(N4CCOC(C5CC5)C4)nc4c3CN(C(C)C)C4=O)cc2)cc1` (stereo not drawn) [Example 53, 2-(2-cyclopropylmorpholin-4-yl)-4-{[4′-(heptyloxy)[1,1′-biphenyl]-4-yl]amino}-6-(propan-2-yl)-5,6-dihydro-7H-pyrrolo[3,4-d]pyrimidin-7-one] was 6.67; that for `COC1CCN(c2nc(Nc3ccc(C4CCCCC4)cc3)c3c(n2)C(=O)N(C(C)C)C3)C1` (stereo not drawn) [Example 26, 4-[(4-cyclohexylphenyl)amino]-2-(3-methoxypyrrolidin-1-yl)-6-(propan-2-yl)-5,6-dihydro-7H-pyrrolo[3,4-d]pyrimidin-7-one] was 5.46.
Next, `CC(C)N1Cc2c(Nc3ccc(C4CCCCC4)cc3)nc(N(C)Cc3cnccn3)nc2C1=O` [Example 33, 4-[(4-cyclohexylphenyl)amino]-2-{methyl[(prazin-2-yl)methyl]amino}-6-(propan-2-yl)-5,6-dihydro-7H-pyrrolo[3,4-d]pyrimidin-7-one]: 5.30; `CC(C)c1ccc(Nc2nc(N3C[C@@H](C)O[C@@H](C)C3)nc3c2CN(C(C)C)C3=O)cc1` [Example 4, 2-[(2R,6S)-2,6-dimethylmorpholin-4-yl]-6-(propan-2-yl)-4-{[4-(propan-2-yl)phenyl]amino}-5,6-dihydro-7H-pyrrolo[3,4-d]pyrimidin-7-one]: 5.42.
Next, `C[C@@H]1CN(c2nc(Nc3ccc(C4CCCCC4)cc3)c3cc(C#N)cnc3n2)CCO1` [Example 101, (R)-4-((4-cyclohexylphenyl)amino)-2-(2-methylmorpholino)pyrido[2,3-d]pyrimidine-6-carbonitrile]: 6.00; `CC(C)N1Cc2c(Nc3ccc(C4CCCCC4)cc3)nc(N(C)CC3CC3)nc2C1=O` [Example 30, 4-[(4-cyclohexylphenyl)amino]-2-[(cyclopropylmethyl)(methyl)amino]-6-(propan-2-yl)-5,6-dihydro-7H-pyrrolo[3,4-d]pyrimidin-7-one]: 5.39.
`CC(C)N1Cc2c(Nc3ccc(C4CCCCC4)cc3)nc(N3CCOC4(CCOCC4)C3)nc2C1=O` [Example 25, 4-[(4-cyclohexylphenyl)amino]-2-(1,9-dioxa-4-azaspiro[5.5]undecan-4-yl)-6-(propan-2-yl)-5,6-dihydro-7H-pyrrolo[3,4-d]pyrimidin-7-one] had a negative-log EC50 (pEC50) of 5.47.
Next, `CC(C)N1Cc2c(Nc3ccc(-c4cccs4)cc3)nc(N3CCOCC3)nc2C1=O` [Example 113, 2-(morpholin-4-yl)-6-(propan-2-yl)-4-{[4-(thiophen-2-yl)phenyl]amino}-5,6-dihydro-7H-pyrrolo[3,4-d]pyrimidin-7-one]: 5.32; `CC(C)N1Cc2c(Nc3ccc(C(F)(F)C(F)(F)F)cc3)nc(N3CCOC(C4CC4)C3)nc2C1=O` (stereo not drawn) [Example 58, 2-(2-cyclopropylmorpholin-4-yl)-4-{[4-(pentafluoroethyl)phenyl]amino}-6-(propan-2-yl)-5,6-dihydro-7H-pyrrolo[3,4-d]pyrimidin-7-one]: 5.42; `CC(C)N1Cc2c(Nc3ccc(C(C)(C)C)cc3)nc(N3CCOCC3)nc2C1=O` [Example 87, 4-[(4-tert-butylphenyl)amino]-2-(morpholin-4-yl)-6-(propan-2-yl)-5,6-dihydro-7H-pyrrolo[3,4-d]pyrimidin-7-one]: 5.09.
Next, `CC(C)c1ccc(Nc2nc(N3CCOC(C4CC4)C3)nc3c2CN(C(C)C)C3=O)cc1` (stereo not drawn) [Example 10, 2-(2-cyclopropylmorpholin-4-yl)-6-(propan-2-yl)-4-{[4-(propan-2-yl)phenyl]amino}-5,6-dihydro-7H-pyrrolo[3,4-d]pyrimidin-7-one]: 5.52.
